According to US20250206745A1, “PYRROLOPYRIDAZINE DERIVATIVES AND RELATED USES” (NodThera Limited, priority 2023, published 2025):
Counter-ions that a name gives are not always drawn.

Assays:
[1] = system: IL-1β release upon NLRP3 activation in peripheral blood mononuclear cells (PBMC); assay: PBMC IC50 Determination Assay; type: cell-based; settings: Homo sapiens; inhibition of IL-1β release; PBMC primed with LPS, stimulated with ATP or nigericin; ELISA or HTRF
Protocol: The compounds of the present disclosure were tested for their inhibitory activity against IL-1β release upon NLRP3 activation in peripheral blood mononuclear cells (PBMC).
Protocol A. PBMC were isolated from buffy coats by density gradient centrifugation on Histopaque-1077 (Sigma, cat no. 10771). Isolated cells were seeded into the wells of a 96-well plate and incubated for 3 h with lipopolysaccharide (LPS). Following medium exchange, the compounds of the present disclosure were added (a single compound per well) and the cells were incubated for 30 min. Next, the cells were stimulated either with ATP (5 mM) or nigericin (10 μM) for 1 h and the cell culture media from the wells were collected for further analysis.
The release of IL-1β into the media was determined by a quantitative detection of IL-1β in the media using an IL-1β enzyme-linked immunosorbent assay (ELISA) Ready-SET-Go!, eBioscience cat. No. 88-7261-88. Briefly, in a first step, high affinity binding plates (Corning, Costar 9018 or NUNC Maxisorp Cat No. 44-2404) were coated overnight at 4° C. with specific capture antibody included in the kit (anti-human IL-1β ref. 14-7018-68). Subsequently, plates were blocked with blocking buffer for 1 h at room temperature (rt) and after washing with a buffer (PBS with 0.05% Tween-20) incubated with protein standard and culture media. After 2 h of incubation at rt, plates were washed and incubated with biotinylated detection antibody included in the kit (anti-human IL-1β Biotin ref. 33-7110-68) for 1 h at rt. Plates were washed and incubated with HRP-streptavidin for 30 min at rt and washed again. The signal was developed after addition of 3,3′,5,5′-tetramethylbenzidine-peroxidase (TMB) until colour appeared and the reaction was stopped by 2 M H2SO4. A microplate spectrophotometer (BioTek) was used to detect signals with 450 nm. The detection range of IL-1β ELISA was […].
Protocol B. PBMC were isolated from buffy coats by density gradient centrifugation on Histopaque-1077 (Sigma, cat no. 10771). Isolated cells were seeded into the wells (280,000 cells/well) of a 96-well plate and incubated for 3 h with lipopolysaccharide (LPS, 1 μg/mL diluted 1000× from a 1 mg/mL stock solution). The compounds of the present disclosure were added (a single compound per well) and the cells were incubated for 30 min. Next, the cells were stimulated with ATP (5 mM final concentration diluted 20× from a 100 mM stock solution) for 1 h and the cell culture media from the wells were collected for further analysis.
The release of IL-1β into the media was determined by quantitative detection of IL-1β in the media using HTRF®, CisBio cat. No. 62HIL1BPEH. Briefly, cell culture supernatant were dispensed directly into the assay plate containing antibodies labelled with the HTRF® donor and acceptor. A microplate spectrophotometer (BMG) was used to detect signals at 655 nm and 620 nm. The detection range of IL-1β HTRF® was 39-6500 pg/mL.

[2] = system: IL-1β release upon NLRP3 activation in phorbol 12-myristate 13-acetate (PMA)-differentiated THP-1 cells; assay: THP-1 IC50 Determination Assay; type: cell-based; settings: Homo sapiens, inhibition of IL-1β release, LPS, nigericin, ELISA
Protocol: The compounds of the present disclosure were tested for their inhibitory activity against IL-1β release upon NLRP3 activation in phorbol 12-myristate 13-acetate (PMA)-differentiated THP-1 cells.
THP-1 cells stored in liquid nitrogen were thawed in a 37° C. water bath. The cells were added into complete RPMI 1640 medium (FBS (56 mL), 100× Penicillin-Streptomycin (5.6 mL) and 0.05 mM 2-Mercaptoethanol in RPMI 1640 Medium (500 mL)) and centrifuged for 5 min at 1000 rpm. The supernatant was discarded and the cells resuspended into new cell culture medium for culturing. Cells were cultured in cell culture medium and passaged every 3-4 days to maintain cell density between 4×10^5 and 1.5×10^6 cells/mL. The cells were diluted to 0.8×10^6 cells/mL and grown in a T150 flask with PMA (final concentration 5 ng/mL). The flask was incubated in a 37° C. incubator with a humidified atmosphere of 5% CO2 for −40 hours. After −40 hours of PMA differentiation, the flask was washed with DPBS. Cells were digested with Trypsin LE for about 5 min at room temperature, and digestion was terminated using complete RPMI 1640 medium. Cells were centrifuged and resuspended (1000 rpm, 3 min). The supernatant was discarded and cells washed with DPBS, centrifuged and resuspended cells (1000 rpm, 5 min). Cells were plated at 30,000 cells/well in a 384-well PP plate and treated with 25 ng/mL LPS solution diluted in serum-free medium (45 μL). The plate was incubated in a 37° C. incubator with a humidified atmosphere of 5% CO2 for 2 hours. Compounds (from 10 mM DMSO solution) were dispensed and serially diluted by 1:3 eight times, with final 0.5% DMSO concentration. NLRP3 inflammasome was activated with nigericin (5 μL), the plate was centrifuged (1000 rpm, 30 s) and incubated in a 37° C. incubator with a humidified atmosphere of […] for 2 hours. 35 μL/well of supernatant was removed and IL-1β levels determined by ELISA assay (Mabtech 3416-1H-20) according to the manufacturer's instructions.

| SMILES | IC50 [2] [µM] | IC50 [1] [µM] |
| --- | --- | --- |
| Cc1cc(Cl)cc(O)c1-c1cc2ccn(CC3CCN(CC(F)(F)F)CC3)c2nn1 [Compound 7, 5-Chloro-3-methyl-2-(7-{[1-(2,2,2-trifluoroethyl)piperidin-4-yl]methyl}-7H-pyrrolo[2,3-c]pyridazin-3-yl)phenol] | 0.3 to 1 | 0.3 to 1 |
| Cc1cc(Cl)cc(O)c1-c1cc2ccn(CC3CCN(C)CC3(F)F)c2nn1 (stereo not shown) [Compound 35, 5-Chloro-2-{7-[(3,3-difluoro-1-methylpiperidin-4-yl)methyl]-7H-pyrrolo[2,3-c]pyridazin-3-yl}-3-methylphenol hydrochloride] | 0.3 to 1 | 0.1 to 0.3 |
| Cc1cc(Cl)cc(O)c1-c1cc2ccn(CC3CCN(C)C4(CC4)C3)c2nn1 (stereo not shown) [Compound 49, 5-Chloro-3-methyl-2-[7-({4-methyl-4-azaspiro[2.5]octan-7-yl}methyl)-7H-pyrrolo[2,3-c]pyridazin-3-yl]phenol hydrochloride] | 0.3 to 1 | 0.1 to 0.3 |
| Cc1cc(Cl)cc(O)c1-c1cc2ccn(CCN3CCC(=O)C3)c2nn1 [Compound 45, 1-{2-[3-(4-Chloro-2-hydroxy-6-methylphenyl)-7H-pyrrolo[2,3-c]pyridazin-7-yl]ethyl}pyrrolidin-3-one] | 0.3 to 1 | 0.3 to 1 |
| Cc1cc(Cl)cc(O)c1-c1cc2ccn(CC3CN(C)C3)c2nn1 [Compound 28, 5-Chloro-3-methyl-2-{7-[(1-methylazetidin-3-yl)methyl]-7H-pyrrolo[2,3-c]pyridazin-3-yl}phenol hydrochloride] | 0.3 to 1 | 0.3 to 1 |
| CNC(=O)Cn1ccc2cc(-c3c(C)cc(Cl)cc3O)nnc21 [Compound 19, 2-[3-(4-Chloro-2-hydroxy-6-methylphenyl)-7H-pyrrolo[2,3-c]pyridazin-7-yl]-N-methylacetamide] | 0.3 to 1 | 0.3 to 1 |
| Cc1cc(Cl)cc(O)c1-c1cc2ccn(CCN3CCCC3=O)c2nn1 [Compound 40, 1-{2-[3-(4-Chloro-2-hydroxy-6-methylphenyl)-7H-pyrrolo[2,3-c]pyridazin-7-yl]ethyl}pyrrolidin-2-one] | 1 to 3 | 1 to 3 |
| Cc1cc(Cl)cc(O)c1-c1cc2ccn(CC3CCCCN3C)c2nn1 (stereo not shown) [Compound 14, 5-Chloro-3-methyl-2-{7-[(1-methylpiperidin-2-yl)methyl]-7H-pyrrolo[2,3-c]pyridazin-3-yl}phenol] | 0.1 to 0.3 | 0.1 to 0.3 |
| COCCCn1ccc2cc(-c3c(C)cc(Cl)cc3O)nnc21 [Compound 23, 5-Chloro-2-[7-(3-methoxypropyl)-7H-pyrrolo[2,3-c]pyridazin-3-yl]-3-methylphenol] | 0.3 to 1 | 0.3 to 1 |
| Cc1cc(Cl)cc(O)c1-c1cc2ncn(CC(=O)N(C)C)c2nn1 [Compound 77, 2-[3-(4-Chloro-2-hydroxy-6-methylphenyl)-7H-imidazo[4,5-c]pyridazin-7-yl]-N,N-dimethylacetamide] | 0.1 to 0.3 | 0.03 to 0.1 |
| Cc1cc(C(F)(F)F)cc(O)c1-c1cc2ccn(CC3CCOC3)c2nn1 (stereo not shown) [Compound 3, 3-Methyl-2-{7-[(oxolan-3-yl)methyl]-7H-pyrrolo[2,3-c]pyridazin-3-yl}-5-(trifluoromethyl)phenol] | 0.1 to 0.3 | 0.1 to 0.3 |
| Cc1cc(Cl)cc(O)c1-c1cc2ccn(C[C@@H]3CCCCN3C)c2nn1 [Compound 46, 5-Chloro-3-methyl-2-(7-{[(2S)-1-methylpiperidin-2-yl]methyl}-7H-pyrrolo[2,3-c]pyridazin-3-yl)phenol hydrochloride] | 0.1 to 0.3 | 0.03 to 0.1 |

Continued, in another order:

| IC50 [2] [µM] | SMILES | IC50 [1] [µM] |
| --- | --- | --- |
| 0.1 to 0.3 | CC(=O)N1CCCC(Cn2ccc3cc(-c4c(C)cc(Cl)cc4O)nnc32)C1 (stereo not shown) [Compound 53, 1-(3-{[3-(4-Chloro-2-hydroxy-6-methylphenyl)-7H-pyrrolo[2,3-c]pyridazin-7-yl]methyl}piperidin-1-yl)ethan-1-one] | 0.1 to 0.3 |
| 0.1 to 0.3 | Cc1cc(Cl)cc(O)c1-c1cc2ccn(CC3CCCCO3)c2nn1 (stereo not shown) [Compound 25, 5-Chloro-3-methyl-2-{7-[(oxan-2-yl)methyl]-7H-pyrrolo[2,3-c]pyridazin-3-yl}phenol] | 0.1 to 0.3 |
| 0.1 to 0.3 | Cc1cc(Cl)cc(O)c1-c1cc2ccn(CC3COC3)c2nn1 [Compound 48, 5-Chloro-3-methyl-2-{7-[(oxetan-3-yl)methyl]-7H-pyrrolo[2,3-c]pyridazin-3-yl}phenol] | 0.1 to 0.3 |
| 0.03 to 0.1 | Cc1cc(C(F)(F)F)cc(O)c1-c1cc2ccn(CC3CCN(C)CC3)c2nn1 [Compound 4, 3-Methyl-2-{7-[(1-methylpiperidin-4-yl)methyl]-7H-pyrrolo[2,3-c]pyridazin-3-yl}-5-(trifluoromethyl)phenol] | 0.03 to 0.1 |
| 0.1 to 0.3 | Cc1cc(Cl)cc(O)c1-c1cc2ccn(CC3CCOC3)c2nn1 (stereo not shown) [Compound 16, 5-Chloro-3-methyl-2-{7-[(oxolan-3-yl)methyl]-7H-pyrrolo[2,3-c]pyridazin-3-yl}phenol] | 0.1 to 0.3 |
| 0.03 to 0.1 | Cc1cc(Cl)cc(O)c1-c1cc2ccn(CC3CCN(C=O)CC3)c2nn1 [Compound 63, 4-{[3-(4-Chloro-2-hydroxy-6-methylphenyl)-7H-pyrrolo[2,3-c]pyridazin-7-yl]methyl}piperidine-1-carbaldehyde] | < 0.03 |
| 0.1 to 0.3 | COCCN1CCC(Cn2ccc3cc(-c4c(C)cc(Cl)cc4O)nnc32)CC1 [Compound 18, 5-Chloro-2-(7-{[1-(2-methoxyethyl)piperidin-4-yl]methyl}-7H-pyrrolo[2,3-c]pyridazin-3-yl)-3-methylphenol] | 0.1 to 0.3 |
| 0.1 to 0.3 | Cc1cc(Cl)cc(O)c1-c1cc2ccn(CC3CCN(CC(F)F)CC3)c2nn1 [Compound 10, 5-Chloro-2-(7-{[1-(2,2-difluoroethyl)piperidin-4-yl]methyl}-7H-pyrrolo[2,3-c]pyridazin-3-yl)-3-methylphenol hydrochloride] | 0.1 to 0.3 |
| 0.03 to 0.1 | Cc1cc(C)c(-c2cc3ncn(CC4CCN(C)CC4)c3nn2)c(O)c1 [Compound 76, 3,5-Dimethyl-2-{7-[(1-methylpiperidin-4-yl)methyl]-7H-imidazo[4,5-c]pyridazin-3-yl}phenol] | 0.03 to 0.1 |
| 0.1 to 0.3 | Cc1cc(Cl)cc(O)c1-c1cc2ccn(CC(=O)N(C)C)c2nn1 [Compound 32, 2-[3-(4-Chloro-2-hydroxy-6-methylphenyl)-7H-pyrrolo[2,3-c]pyridazin-7-yl]-N,N-dimethylacetamide] | 0.1 to 0.3 |
| < 0.03 | Cc1cc(Cl)cc(O)c1-c1cc2ccn(CC3(O)CCN(C)CC3)c2nn1 [Compound 56, 4-{[3-(4-Chloro-2-hydroxy-6-methylphenyl)-7H-pyrrolo[2,3-c]pyridazin-7-yl]methyl}-1-methylpiperidin-4-ol hydrochloride] | < 0.03 |
